The text below walks through data of patent US20230181524A1, “PHARMACEUTICAL COMBINATION AND USE THEREOF” (NATURAL MEDICINE INSTITUTE OF ZHEJIANG YANGSHENGTANG CO., …, priority 2020, published 2023).

Values joined by “and” are separate entries in the source; they are usually repeats but may differ in a detail not shown here. Equal entries are not always repeated. d = 2'-deoxy (DNA)

Data set [1] has as its system HOS human osteosarcoma cells. The data set is described as follows: Cell counts of drug combination administration (Trypan Blue), cell viability. As to the method: (§1) (1) Cells were plated in a 10 cm culture plate to grow a density of about 90%. The medium was removed, and the adherent cells were washed once with a PBS buffer. 1 mL of trypsin was added, and immediately discarded after mixing well. The cells were placed in the incubator and digested for about 5 min, and then about 10 ml of fresh medium was added. 10 μL was taken for counting.
(§2) (2) 10 μL of the well-mixed cells were taken and mixed into 10 μL of Trypan Blue solution, and counted.
(§3) (3) After counting, the cells were diluted to 1×10^5 cells/ml. The diluted cells were mixed well, and plated into a 24-well plate with 500 μL per well, i.e., about 50,000 cells per well.
(§4) (4) The cells plated in the 24-well plate were cultured for about 24h, and then drugs were added. […]
(§5) (5) After 24h of dosing, the medium was discarded. About 150 μL of trypsin was added and then discarded. The cells were digested for 5 min;
(§6) (6) After digestion, equivalent amounts of PBS were added into each well and mixed uniformly. Then, 10 μL/well of Trypan Blue solution was added and mixed uniformly. 10 μL of the well-mixed solution was taken and counted. In accordance with “Cell viability=Cell Count of Test Group/Cell Count of Control Group×100%”, the cell viability of various groups was calculated.
(§7) The coefficient of drug in interaction (CDI) was used to evaluate the nature of the interaction between the two drugs. The test groups were divided into the control group, the group of A drug, the group of B drug and the group of AB in combination, and used for detecting the cell viability in A, B and AB groups, respectively.

The subject of data set [2] is 143B human osteosarcoma cells. The description is as above. How it is done:
as §1, §2, §3, §4, §5, §6, §7

The subject of data set [3] is HEK293 cells. Description: Cell viability compared with HEK293 cells (specificity). In kind it is cell-based. The note with it: in combination with ascorbic acid. As to the method:
HEK293 cells, HOS human osteosarcoma cells, and 143B human osteosarcoma cells were subcultured in an incubator at 37° C., 5% CO2 using a RPMI-1640 medium containing 10% fetal bovine serum (FBS).
(§8) 10 μL was taken for counting.
(5) After 24h of dosing, the medium was discarded. […] The cells were digested for 5 min;

The test system of data set [4] is MC38 human colon cancer cells. Description: Cell viability, method of Example 1. How it is done:
as §1, §2, §3
(§9) (4) The cells plated in the 24-well plate were cultured for about 24h, and then drugs were added. Various test groups comprise 5 groups as follows: the single-drug group of PKF118-310 (with a concentration of 0.1 μM), the group of ascorbic acid (with a concentration of 0.5 mM), the group of PKF118-310 (with a concentration of 0.1 μM) in combination with ascorbic acid (with a concentration of 0.5 mM); the control group that is a cell group to which only solvent DMSO is added; and the blank group that is a group to which no cell is added and only solvent (DMSO) is added.
as §5, §6
(§10) The inhibitory effect of PKF118-310 on the MC38 human colon cancer cells and the HCT116 human […] cancer cells was detected in accordance with the corresponding method of Example 1.

Data set [5] has as its system HCT116 human colon cancer cells. The data set is described as follows: Cell viability of single-drug administration, concentration gradient (CCK-8). The conditions noted are these: concentrations ranging from 0 to 100 μM. In kind it is cell-based. As to the method: as §8
(§11) The diluted cells were plated into a 96-well plate with 100 μL per well, i.e., about 10,000 cells per well. […]
(§12) (4) After 24h of dosing, 10 μL of CCK-8 solution was added. The cells were incubated in the incubator for 1-2 hours, and then measured at 490 nm using a microplate reader for the absorbance (OD value) of each well. The results were recorded. The relative cell viability was calculated as follows:
(§13) The cell viability of the control group obtained according the equation is 100%.

Data set [6] deals with MC38 human colon cancer cells. Described as above. The conditions noted are these: concentrations ranging from 0 to 100 μM. It is filed as cell-based. How it is done: as §8, §11, §12, §13
The test system of data set [7] is 143B human osteosarcoma cells. Description: siRNA against β-catenin transfection with or without sodium ascorbate, cell viability by cell count. It is filed as cell-based. The note with it: 143B cells.
Description: SiRNA is designed against the nucleotide sequence of β-catenin, and the siRNA codes are 484, 1202, and 1387, respectively. The sequences of sense strand and anti-sense strand of 484 are shown in SEQ ID NO. 1-2, respectively, and the sequences of sense strand and anti-sense strand of 1202 are shown in SEQ ID NO. 3-4, respectively, and the sequences of sense strand and anti-sense strand of 1387 are shown in SEQ ID NO. 5-6, respectively, wherein there are 2 T-bases at the 3′ end of each strand. 143B human osteosarcoma cells were subcultured at 37° C., 5% CO2 in an incubator with a RPMI-1640 medium containing 10% fetal bovine serum. The particular steps were as follows:
as §8
Then, the medium was discarded and replaced with 500 μL of serum-free medium.
(5) […] of siRNA was added into 50 μL of serum-free medium and mixed well.
(6) 1 μL of Lipofectamin 2000 transfection reagent was added into 50 μL of serum-free medium, mixed well, and stood at room temperature for 5 min.
(7) The siRNA diluted in Step (5) and the Lipofectamin 2000 reagent obtained in Step (6) were mixed, shaken well, and stood at room temperature for 20 min.
(8) 100 μL of the mixture obtained in Step (7) was added into the wells of the cell culture plate, cultured at 37° C. for 4h, and then the medium was replaced with normal medium. And an ascorbic acid solution with a concentration of 0.5 mM into the ascorbic acid group and the combination group.
(9) After 24h of dosing, the medium was discarded. […] The cells were digested for 5 min;

The subject of data set [8] is 3AO human ovarian cancer cells. The data set is described as follows: cells. The conditions noted are these: Homo sapiens, 3AO, read-out: cell viability. As to the method: as §1, §2, §3, §9, §5, §6
(§14) The inhibitory effect of PKF118-310 on the SKOV3 human ovarian cancer cells and the 3AO human ovarian cancer cells was detected in accordance with the corresponding method of Example 1.

Data set [9] has as its system SKOV3 human ovarian cancer cells. The data set is described as follows: cells. The conditions noted are these: Homo sapiens, SK-OV-3, read-out: cell viability. As to the method: as §1, §2, §3, §9, §5, §6, §14
Data set [10] concerns HCT116 human colon cancer cells. Description: cells. The note with it: Homo sapiens, HCT-116, read-out: cell viability. As to the method: as §1, §2, §3, §9, §5, §6, §10
For data set [11], the system named is DB lymphoma cells. The note with it: 2 mM ascorbic acid alone. How it is done: as §1, §2, §3, §9, §5, §6
For example, as for the DB lymphoma cells, the control group involves adding the solvent DMSO alone, the Vc group involves adding 2 mM of ascorbic acid, the low-dose PKF group involves adding 2 μM of PKF118-310, the low-dose PKF+Vc group involves adding 2 μM of PKF118-310 and 2 mM of ascorbic acid, the high-dose PKF group involves adding 5 μM of PKF118-310, and the high-dose PKF+the Vc group involves adding 5 μM of PKF118-310 and 2 mM of ascorbic acid.

For data set [12] the following is noted: alone; PKF118-310 0.7 mg/kg s.c. or ascorbate 1 g/kg i.v. every 3 days.
Description: The day of the first injection was taken as Day 1, and then the body weight and the tumor size of the nude mice were examined and recorded: the tumor volume (mm^3)=Length (L)×Width (W)^2/2. The tumor was subject to Luciferin fluorescence imaging. That is, a 1 mg/mL of aqueous potassium D-fluorescein solution was prepared, and each mouse was intraperitoneally injected with 100 μL. After 10 min of injection, the mice were subject to Luciferin fluorescence imaging with a small animal live imaging instrument.
Where [13] appears, read: 10 μM in combination with 0.5 mM ascorbic acid.
Where [14] appears, read: 20 μM in combination with 0.5 mM sodium ascorbate.
The mark [15] stands for this setting: Homo sapiens, 143B, read-out: cell viability.
The mark [16] stands for this setting: Homo sapiens, MC-38, read-out: cell viability.
Where [17] appears, read: administration of the siRNA alone.
[18] abbreviates: siRNA in combination with 0.5 mM sodium ascorbate.

In the case of `Cc1nc2c(=O)n(C)c(=O)nc-2n(C)n1` [3-Methyltoxoflavin], the cell viability in data set [1] (10 μM and 0.5 mM ascorbic acid) is on record as 54%; in data set [1] (single drug 10 μM), 63%. In addition, in [1] (setting [13]), the CDI value amounted to 0.86.
With `OC1CCC(Oc2cccc3cnc(Nc4ccc5nc[nH]c5c4)nc23)CC1` (centres unmarked) [NCB-0846], the CDI value in data set [2] (143B cells, 20 μM in combination with 0.5 mM sodium ascorbate) was 0.13; in [1] (setting [14]), 0.16. For the same molecule, in data set [3], the “specificity of inhibition of tumor cell viability as compared with the HEK293 cells” value was “can specifically inhibit the cell viability of the 143B cells and the HOS cells”.
In the case of `C[C@H]1[C@H]2N(C(=O)CN(C)N2C(=O)NCc2ccccc2)[C@@H](Cc2ccc(OP(=O)(O)O)cc2)C(=O)N1Cc1cccc2cccnc12` [PRI-724], in data set [1] (setting [14]), the CDI value came to 0.41 and the cell viability is on record as 74%. The cell viability in data set [1] (single-drug 20 μM) stood at 102%.
Take `Cn1nc(-c2ccc(C(F)(F)F)cc2)nc2c(=O)n(C)c(=O)nc1-2` [Walrycin B]: the cell viability was 30% in data set [1] (10 μM and 0.5 mM ascorbic acid); 42% in data set [1] (single drug 10 μM). For the same molecule, the CDI value in data set [1] (setting [13]) stood at 0.73.
On to `CCC(C)c1nc2c(=O)n(C)c(=O)nc-2n(C(C)C)n1` (centres unmarked) [compound C-1], for which the CDI value in data set [2] (143B cells, 5 μM in combination with 0.5 mM ascorbic acid) turned out to be 0.40; in data set [4] (MC38 cells, 5 μM in combination with 0.5 mM ascorbic acid), 0.68. Moreover, the values for the viability at 5 µM in data set [2] (setting [15]) and in [4] (setting [16]) were 50% and 90%, respectively. Moreover, the cell viability was determined as 19% in data set [2] (human, 24 h, 5 μM) and 59% in data set [4] (human, 24 h, 5 μM).
For the molecule `CC(C)c1nc2c(=O)n(C)c(=O)nc-2n(C)n1` [compound C-2], the CDI value in data set [2] (143B cells, 1 μM in combination with 0.5 mM ascorbic acid) is recorded as 0.37; in [4] (MC38 cells, 1 μM in combination with 0.5 mM ascorbic acid), 0.07. The viability at 1 µM in data set [2] (setting [15]) and in data set [4] (setting [16]) was 83% in each case. Moreover, the cell viability in data set [2] (human, 24 h, 1 μM) amounted to 28%; in data set [4] (human, 24 h, 1 μM), 6%.
`O=C1[O][Pt]2([NH][C@@H]3CCCC[C@H]3[NH]2)[O]C1=O` [oxaliplatin]: the “effect on the cell viability” value in data set [5] and in data set [6] was “does not have significant effect on the cell viability” in each case.
Take `O=C1O[C@H]([C@@H](O)CO)C([O-])=C1O.[Na+]` [sodium ascorbate]: the cell viability in data set [2] (143B cells, 0.5 mM sodium ascorbate (ascorbic acid) alone) was 54% and 80%; in [2] (143B cells, 0.5 mM sodium ascorbate (ascorbic acid) alone, listed as ascorbic acid), 96% and 92%; in data set [1] (0.5 mM sodium ascorbate (ascorbic acid) alone), 91% and 96% and 76%; in data set [1] (0.5 mM sodium ascorbate (ascorbic acid) alone, listed as ascorbic acid), 98% and 99%; in data set [4] (MC38 cells, 0.5 mM sodium ascorbate (ascorbic acid) alone), 96% and 98%; in data set [11], 91%. Besides, the viability at 500 µM in data set [7] (Homo sapiens, 0.5 mM sodium ascorbate alone (siRNA experiment)) worked out at 63%; in data set [8] it was 99%; in data set [9] it was 97%; in [4] (Homo sapiens, MC-38, read-out: cell viability, MC38 cells, 0.5 mM sodium ascorbate (ascorbic acid) alone), 83%; in data set [10], 98%. Besides, the “effect on the body weight of mice” value in [12] was “no effect on the body weight of mice”.
Turning to “siRNA 484: siRNA against β-catenin, sense and anti-sense strands SEQ ID NO. 1-2, 2 T-bases at the 3′ end of each strand (sense CCUUCACUCAAGAACAAGU; antisense ACUUGUUCUUGAGUGAAGG; RNA, 3' dTdT, backbone not given here)”, the cell viability in data set [7] (setting [17]) was determined as 90%; in data set [7] (setting [18]), 26%. Also, the CDI value in data set [7] (setting [18]) is listed as 0.46.
With “siRNA 1202: siRNA against β-catenin, sense and anti-sense strands SEQ ID NO. 3-4, 2 T-bases at the 3′ end of each strand (sense GCUCAUCAUACUGGCUAGU; antisense ACUAGCCAGUAUGAUGAGC; RNA, 3' dTdT, backbone not given here)”, the values for the cell viability in data set [7] (setting [17]) and in data set [7] (setting [18]) were 91% and 17%, respectively. For the same molecule, in [7] (setting [18]), the CDI value is 0.30.
The like results for “siRNA 1387: siRNA against β-catenin, sense and anti-sense strands SEQ ID NO. 5-6, 2 T-bases at the 3′ end of each strand (sense GUCAACGUCUUGUUCAGAA; antisense UUCUGAACAAGACGUUGAC; RNA, 3' dTdT, backbone not given here)” were, in that order, 80%, 20% and 0.40.

As a reminder, the cell viability is a read-out of living cells in per cent, often relative to untreated cells. A word on the viability: it is a read-out of living cells in per cent, often relative to untreated cells.
